± gives the expanded uncertainty stated by the source.
Conditions: Liquid; for mass density: 101.33 kPa, Vibrating tube method; for speed of sound: Pulse-echo method

BrCCCBr [1,3-dibromopropane]
mass density (292.55 K): 1980.22 ± 1.2 kg/m3 | speed of sound (292.66 K, 100 kPa): 1078.9 ± 1.2 m/s | speed of sound (292.72 K, 15200 kPa): 1114.4 ± 2.3 m/s | speed of sound (292.78 K, 30400 kPa): 1148.6 ± 2.3 m/s | speed of sound (292.79 K, 45600 kPa): 1180.5 ± 2.3 m/s | speed of sound (292.8 K, 60810 kPa): 1210.8 ± 2.3 m/s | speed of sound (292.8 K, 91220 kPa): 1265.8 ± 2.4 m/s | speed of sound (292.82 K, 76010 kPa): 1239.1 ± 2.4 m/s | speed of sound (292.83 K, 101350 kPa): 1283 ± 2 m/s | mass density (297.98 K): 1970.22 ± 1.2 kg/m3 | speed of sound (298.03 K, 76000 kPa): 1227.5 ± 2.4 m/s | speed of sound (298.04 K, 45600 kPa): 1167.8 ± 2.3 m/s | speed of sound (298.04 K, 60810 kPa): 1198.5 ± 2.4 m/s | speed of sound (298.04 K, 91210 kPa): 1255 ± 2.4 m/s | speed of sound (298.05 K, 30400 kPa): 1135.1 ± 2.3 m/s | speed of sound (298.07 K, 15210 kPa): 1100.1 ± 2.3 m/s | speed of sound (298.08 K, 101330 kPa): 1272.4 ± 2.4 m/s | speed of sound (298.61 K, 100 kPa): 1062.6 ± 1.2 m/s | speed of sound (302.95 K, 15210 kPa): 1087.4 ± 2.3 m/s | speed of sound (302.95 K, 30410 kPa): 1123 ± 2.3 m/s | speed of sound (302.95 K, 45600 kPa): 1156.1 ± 2.3 m/s | speed of sound (302.95 K, 60790 kPa): 1187.2 ± 2.3 m/s | speed of sound (302.95 K, 76010 kPa): 1216.7 ± 2.4 m/s | speed of sound (302.95 K, 91220 kPa): 1244.5 ± 2.4 m/s | speed of sound (302.95 K, 101350 kPa): 1262.3 ± 2.4 m/s | mass density (303.07 K): 1961.58 ± 1.2 kg/m3 | speed of sound (303.58 K, 100 kPa): 1049 ± 1.2 m/s | mass density (308.02 K): 1952.84 ± 1.2 kg/m3 | speed of sound (308.04 K, 76010 kPa): 1205.6 ± 2.4 m/s | speed of sound (308.04 K, 91210 kPa): 1233.7 ± 2.4 m/s | speed of sound (308.04 K, 101350 kPa): 1251.8 ± 2.4 m/s | speed of sound (308.05 K, 15210 kPa): 1074.3 ± 2.3 m/s | speed of sound (308.05 K, 30410 kPa): 1110.5 ± 2.3 m/s | speed of sound (308.05 K, 45620 kPa): 1144.2 ± 2.3 m/s | speed of sound (308.05 K, 60820 kPa): 1175.8 ± 2.3 m/s | speed of sound (308.67 K, 100 kPa): 1035.3 ± 1.2 m/s | speed of sound (313.41 K, 15230 kPa): 1060.7 ± 2.3 m/s | speed of sound (313.41 K, 30410 kPa): 1097.5 ± 2.3 m/s | speed of sound (313.41 K, 45610 kPa): 1131.7 ± 2.3 m/s | speed of sound (313.41 K, 60800 kPa): 1163.8 ± 2.4 m/s | speed of sound (313.41 K, 76010 kPa): 1194 ± 2.4 m/s | speed of sound (313.42 K, 91200 kPa): 1222.6 ± 2.4 m/s | speed of sound (313.42 K, 101330 kPa): 1240.8 ± 2.4 m/s | mass density (314.58 K): 1941.18 ± 1.2 kg/m3 | speed of sound (314.7 K, 100 kPa): 1019 ± 1.2 m/s

BrCCCCCBr [1,5-dibromopentane]
speed of sound (292.38 K, 100 kPa): 1149.5 ± 1.2 m/s | speed of sound (292.47 K, 91200 kPa): 1354 ± 2.4 m/s | speed of sound (292.48 K, 30400 kPa): 1226.2 ± 2.3 m/s | speed of sound (292.5 K, 45600 kPa): 1260.8 ± 2.3 m/s | speed of sound (292.52 K, 60800 kPa): 1293.4 ± 2.4 m/s | speed of sound (292.53 K, 15210 kPa): 1189.1 ± 2.3 m/s | speed of sound (292.57 K, 101320 kPa): 1372.2 ± 2.4 m/s | speed of sound (292.59 K, 76010 kPa): 1324.4 ± 2.4 m/s | speed of sound (298 K, 60800 kPa): 1281.2 ± 2.4 m/s | speed of sound (298 K, 91200 kPa): 1342.4 ± 2.4 m/s | speed of sound (298 K, 101330 kPa): 1361.6 ± 2.4 m/s | speed of sound (298.01 K, 45600 kPa): 1248 ± 2.3 m/s | speed of sound (298.02 K, 30410 kPa): 1212.7 ± 2.3 m/s | speed of sound (298.03 K, 15210 kPa): 1174.8 ± 2.3 m/s | speed of sound (298.05 K, 76000 kPa): 1312.6 ± 2.4 m/s | speed of sound (298.37 K, 100 kPa): 1133 ± 1.2 m/s | speed of sound (303 K, 76000 kPa): 1302 ± 2.4 m/s | speed of sound (303.01 K, 15200 kPa): 1162.1 ± 2.3 m/s | speed of sound (303.01 K, 30400 kPa): 1200.6 ± 2.3 m/s | speed of sound (303.01 K, 60790 kPa): 1270 ± 2.4 m/s | speed of sound (303.01 K, 91200 kPa): 1331.8 ± 2.4 m/s | speed of sound (303.01 K, 101340 kPa): 1350.7 ± 2.4 m/s | speed of sound (303.02 K, 45600 kPa): 1236.5 ± 2.3 m/s | speed of sound (303.4 K, 100 kPa): 1119.3 ± 1.2 m/s | speed of sound (308.03 K, 15210 kPa): 1148.7 ± 2.3 m/s | speed of sound (308.03 K, 30410 kPa): 1187.7 ± 2.3 m/s | speed of sound (308.03 K, 45590 kPa): 1224 ± 2.3 m/s | speed of sound (308.05 K, 101330 kPa): 1340 ± 2.4 m/s | speed of sound (308.06 K, 60790 kPa): 1257.9 ± 2.4 m/s | speed of sound (308.06 K, 76000 kPa): 1290.1 ± 2.4 m/s | speed of sound (308.06 K, 91200 kPa): 1320.5 ± 2.4 m/s | speed of sound (308.38 K, 100 kPa): 1105.8 ± 1.2 m/s | speed of sound (313.14 K, 76030 kPa): 1279.3 ± 2.4 m/s | speed of sound (313.16 K, 91210 kPa): 1310.1 ± 2.4 m/s | speed of sound (313.16 K, 101330 kPa): 1330 ± 2.4 m/s | speed of sound (313.17 K, 45610 kPa): 1212.3 ± 2.3 m/s | speed of sound (313.18 K, 60800 kPa): 1246.8 ± 2.4 m/s | speed of sound (313.2 K, 15210 kPa): 1135.8 ± 2.3 m/s | speed of sound (313.2 K, 30410 kPa): 1175.5 ± 2.3 m/s | speed of sound (314.36 K, 100 kPa): 1089.7 ± 1.2 m/s
